{"source": "patent US12084601B2", "about": "“Packaging patches having disinfecting sealing layer” (AMCOR FLEXIBLES NORTH AMERICA, INC., priority 2017, dated 2024)", "origin": "cited, not measured here", "data": [{"smiles": "[O][Cl+][O-]", "note": "[chlorine dioxide]", "values": [{"measurement": "Half-life of chlorine dioxide degradation (first order kinetics)", "setting": "ambient room light and temperature, depending on initial ClO2 concentration", "result": "2 to 3", "unit": "h"}, {"measurement": "Time for chlorine dioxide concentration in the package to reach levels sufficiently low for safe opening", "setting": "spontaneous degradation, prior packages", "result": "12 to 48", "unit": "h"}]}]}
